Measured values: ChEMBL document CHEMBL3045062, “Potent in vitro and in vivo antitubercular activity of certain newly synthesized indophenazine 1,3,5-trisubstituted pyrazoline derivatives bearing benzofuran” (Med Chem Res, 2011)
Converted amounts (≈) assume the structure as drawn.

Experiments:
[1] = system: Mycobacterium tuberculosis; assay: Antitubercular activity against Mycobacterium tuberculosis H37Rv after 60 days; assay type: functional
Vero = assay: Cytotoxicity against Chlorocebus aethiops (African green monkey) Vero cells after 72 hr; assay type: cell-based; settings: Chlorocebus sabaeus

Row | Structure (SMILES) | MIC50 [1] | MIC90 [1] | IC50 (Vero)
1 | O=C(Cn1c2ccccc2c2nc3ccccc3nc21)N1N=C(c2cc3cc(O)ccc3o2)CC1c1ccc(Cl)cc1 (configuration not stated) | 2.45 µg/mL (≈ 4.28 µM) | 4.2 µg/mL (≈ 7.34 µM) | > 205 µM
2 | O=C(Cn1c2ccccc2c2nc3ccccc3nc21)N1N=C(c2cc3cc(O)ccc3o2)CC1c1ccccc1O (configuration not stated) | 9.81 µg/mL (≈ 17.7 µM) | 10.8 µg/mL (≈ 19.6 µM) | > 227 µM
3 | CN(C)c1ccc(C2CC(c3cc4cc(O)ccc4o3)=NN2C(=O)Cn2c3ccccc3c3nc4ccccc4nc32)cc1 (configuration not stated) | 5.56 µg/mL (≈ 9.58 µM) | 9.21 µg/mL (≈ 15.9 µM) | > 216 µM
4 | O=C(Cn1c2ccccc2c2nc3ccccc3nc21)N1N=C(c2cc3cc(O)ccc3o2)CC1c1ccccc1Cl (configuration not stated) | 1.75 µg/mL (≈ 3.06 µM) | 2.56 µg/mL (≈ 4.48 µM) | > 196 µM
5 | COc1ccc(C2CC(c3cc4cc(O)ccc4o3)=NN2C(=O)Cn2c3ccccc3c3nc4ccccc4nc32)cc1 (configuration not stated) | 12.1 µg/mL (≈ 21.3 µM) | 14.3 µg/mL (≈ 25.2 µM) | > 226 µM
6 | O=C(Cn1c2ccccc2c2nc3ccccc3nc21)N1N=C(c2cc3cc(O)ccc3o2)CC1c1ccccc1[N+](=O)[O-] (configuration not stated) | 0.16 µg/mL (≈ 0.275 µM) | 0.42 µg/mL (≈ 0.721 µM) | > 144 µM
7 | O=C(Cn1c2ccccc2c2nc3ccccc3nc21)N1N=C(c2cc3cc(O)ccc3o2)CC1c1ccco1 (configuration not stated) | 1.1 µg/mL (≈ 2.09 µM) | 3.12 µg/mL (≈ 5.91 µM) | > 198 µM
8 | COc1ccc(C2CC(c3cc4cc(O)ccc4o3)=NN2C(=O)Cn2c3ccccc3c3nc4ccccc4nc32)c(O)c1 (configuration not stated) | 4.56 µg/mL (≈ 7.81 µM) | 8.32 µg/mL (≈ 14.3 µM) | > 206 µM
9 | COc1c(N2CCNC(C)C2)c(F)cc2c(=O)c(C(=O)O)cn(C3CC3)c12 (configuration not stated) [GATIFLOXACIN] | 0.12 µg/mL (≈ 0.32 µM) | 0.5 µg/mL (≈ 1.33 µM) | > 160 µM
10 | CC(=O)c1ccccc1C1CC(c2cc3cc(O)ccc3o2)=NN1C(=O)Cn1c2ccccc2c2nc3ccccc3nc21 (configuration not stated) |  |  | > 220 µM
11 | COc1ccccc1C1CC(c2cc3cc(O)ccc3o2)=NN1C(=O)Cn1c2ccccc2c2nc3ccccc3nc21 (configuration not stated) | 11.8 µg/mL (≈ 20.8 µM) | 14.2 µg/mL (≈ 25 µM) | > 226 µM
12 | O=C(Cn1c2ccccc2c2nc3ccccc3nc21)N1N=C(c2cc3cc(O)ccc3o2)CC1c1ccccc1 (configuration not stated) |  |  | > 197 µM
13 | CO[C@H]1/C=C/O[C@@]2(C)Oc3c(C)c(O)c4c(O)c(c(/C=N/N5CCN(C)CC5)c(O)c4c3C2=O)NC(=O)/C(C)=C\C=C\[C@H](C)[C@H](O)[C@@H](C)[C@@H](O)[C@@H](C)[C@H](OC(C)=O)[C@@H]1C [RIFAMPIN] | 0.5 µg/mL (≈ 0.608 µM) | 2 µg/mL (≈ 2.43 µM) | > 77.4 µM
14 | O=C(Cn1c2ccccc2c2nc3ccccc3nc21)N1N=C(c2cc3cc(O)ccc3o2)CC1c1ccc(O)cc1 (configuration not stated) |  |  | > 245 µM
15 | O=C(Cn1c2ccccc2c2nc3ccccc3nc21)N1N=C(c2cc3cc(O)ccc3o2)CC1/C=C/c1ccccc1 (configuration not stated) | 0.98 µg/mL (≈ 1.74 µM) | 3.67 µg/mL (≈ 6.51 µM) | > 206 µM
16 | O=C(Cn1c2ccccc2c2nc3ccccc3nc21)N1N=C(c2cc3cc(O)ccc3o2)CC1c1cccc([N+](=O)[O-])c1 (configuration not stated) | 0.62 µg/mL (≈ 1.06 µM) | 1.24 µg/mL (≈ 2.13 µM) | > 180 µM
